PubChem BioAssay (NCI)
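Values below derive from 48-hour exposures of cells grown in 96-well plates, with endpoints linearly interpolated between the two concentrations bracketing the appropriate inhibition level. The concentration for full growth arrest is given as TGI.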 Where a SMILES comes first, the peptide text is derived from it. [ ]: non-standard residue; d: D form. The star is where a group is joined. ξ: configuration not given here. ξPhe(4-NO2) = NC(Cc1ccc([N+](=O)[O-])cc1)C(=O)O; Boc = CC(C)(C)OC(=O)*

How the values were obtained:
Assay in all cases: NCI-60 cell line screen, 48 h
[1] = system: A549 NSCLC
[2] = system: PC-3 prostate
[3] = system: DU-145 prostate
[4] = system: MALME-3M melanoma
[5] = system: RXF 393 renal
[6] = system: SK-MEL-28 melanoma
[7] = system: IGROV1 ovarian
[8] = system: SF-268 CNS
[9] = system: LOX IMVI melanoma
[10] = system: TK-10 renal
[11] = system: NCI/ADR-RES ovarian
[12] = system: MDA-MB-435
[13] = system: SK-OV-3 ovarian
[14] = system: OVCAR-3 ovarian
[15] = system: NCI-H226 lung
[16] = system: OVCAR-5 ovarian
[17] = system: SK-MEL-2 melanoma
[18] = system: MOLT-4 leukemia
[19] = system: SNB-19 CNS
[20] = system: SF-295 CNS
[21] = system: SR leukemia
[22] = system: SK-MEL-5 melanoma
[23] = system: HS 578T breast
[24] = system: SNB-75 CNS
[25] = system: 786-0 renal
[26] = system: HOP-92 NSCLC
[27] = system: MCF7 breast
[28] = system: K-562 leukemia
[29] = system: UACC-62 melanoma
[30] = system: HL-60(TB) leukemia
[31] = system: ACHN renal
[32] = system: T-47D breast
[33] = system: SF-539 CNS
[34] = system: M14 melanoma
[35] = system: NCI-H23 lung
[36] = system: HCC-2998 colon
[37] = system: SN12C renal
[38] = system: NCI-H522 lung
[39] = system: CAKI-1 renal
[40] = system: OVCAR-8 ovarian
[41] = system: HCT-15 colon
[42] = system: COLO 205 colon
[43] = system: MDA-MB-231 breast
[44] = system: OVCAR-4 ovarian
[45] = system: A498 renal
[46] = system: KM12 colon
[47] = system: U251 CNS
[48] = system: UO-31 renal
[49] = system: MDA-N
[50] = system: HT29 colon
[51] = system: UACC-257 melanoma
[52] = system: SW-620 colon
[53] = system: NCI-H460 lung
[54] = system: HCT-116 colon
[55] = system: HOP-62 NSCLC
[56] = system: EKVX NSCLC
[57] = system: CCRF-CEM leukemia
[58] = system: RPMI-8226 leukemia
[59] = system: BT-549 breast

`COc1ccc(S(=O)(=O)Nc2ccc(-c3csc(N4C(=O)/C(=C/c5cccs5)N=C4c4ccccc4)n3)cc2)cc1Cl` gave a TGI [1] greater than 100 µM, a TGI [2] greater than 100 µM and a TGI [3] greater than 100 µM. The TGI [4] was 90.5 µM, the TGI [5] was greater than 100 µM and the TGI [6] was greater than 100 µM. For the same compound, the TGI [7] was greater than 100 µM, the TGI [8] was greater than 100 µM and the TGI [9] was greater than 100 µM. It also gave a TGI [10] greater than 100 µM, a TGI [11] greater than 100 µM and a TGI [12] greater than 100 µM. It also gave a TGI [13] greater than 100 µM, a TGI [14] greater than 100 µM and a TGI [15] greater than 100 µM. The TGI [16] was greater than 100 µM, the TGI [17] was greater than 100 µM and the TGI [18] was greater than 100 µM. It also gave a TGI [19] greater than 100 µM, a TGI [20] greater than 100 µM and a TGI [21] greater than 100 µM. For the same compound, the TGI [22] was greater than 100 µM, the TGI [23] was 93.3 µM and the TGI [24] was greater than 100 µM. For the same compound, the TGI [25] was greater than 100 µM, the TGI [26] was 72 µM and the TGI [27] was greater than 100 µM. For the same compound, the TGI [28] was greater than 100 µM, the TGI [29] was greater than 100 µM and the TGI [30] was 87.4 µM. It also gave a TGI [31] greater than 100 µM, a TGI [32] of 85 µM and a TGI [33] greater than 100 µM. For the same compound, the TGI [34] was greater than 100 µM, the TGI [35] was 59.6 µM and the TGI [36] was greater than 100 µM. The TGI [37] was greater than 100 µM, the TGI [38] was 62.8 µM and the TGI [39] was greater than 100 µM. It also gave a TGI [40] greater than 100 µM, a TGI [41] of 70.6 µM and a TGI [42] greater than 100 µM. The TGI [43] was greater than 100 µM, the TGI [44] was greater than 100 µM and the TGI [45] was 65.2 µM. The TGI [46] was greater than 100 µM, the TGI [47] was greater than 100 µM and the TGI [48] was 86.3 µM. It also gave a TGI [49] greater than 100 µM, a TGI [50] greater than 100 µM and a TGI [51] greater than 100 µM. The TGI [52] was greater than 100 µM, the TGI [53] was greater than 100 µM and the TGI [54] was greater than 100 µM. For the same compound, the TGI [55] was 45.8 µM.
Compound `CCNC(=O)CNC(=O)C(Cc1ccc([N+](=O)[O-])cc1)NC(=O)OC(C)(C)C` (stereo not given) (Boc-[ξPhe(4-NO2)]-Gly-NHEt) has a TGI [1] greater than 100 µM, a TGI [2] greater than 100 µM and a TGI [3] greater than 100 µM. The TGI [4] was greater than 100 µM, the TGI [5] was greater than 100 µM and the TGI [6] was greater than 100 µM. The TGI [7] was greater than 100 µM, the TGI [8] was greater than 100 µM and the TGI [9] was greater than 100 µM. It also gave a TGI [56] greater than 100 µM, a TGI [10] greater than 100 µM and a TGI [11] greater than 100 µM. The TGI [12] was greater than 100 µM, the TGI [13] was greater than 100 µM and the TGI [14] was greater than 100 µM. It also gave a TGI [15] greater than 100 µM, a TGI [16] greater than 100 µM and a TGI [18] greater than 100 µM. It also gave a TGI [57] greater than 100 µM, a TGI [58] greater than 100 µM and a TGI [19] greater than 100 µM. It also gave a TGI [20] greater than 100 µM, a TGI [21] greater than 100 µM and a TGI [22] greater than 100 µM. The TGI [23] was greater than 100 µM, the TGI [24] was greater than 100 µM and the TGI [25] was greater than 100 µM. It also gave a TGI [26] greater than 100 µM, a TGI [27] greater than 100 µM and a TGI [28] greater than 100 µM. The TGI [29] was greater than 100 µM, the TGI [30] was greater than 100 µM and the TGI [31] was greater than 100 µM. The TGI [34] was greater than 100 µM, the TGI [35] was greater than 100 µM and the TGI [36] was greater than 100 µM. For the same compound, the TGI [37] was greater than 100 µM, the TGI [38] was greater than 100 µM and the TGI [39] was greater than 100 µM. It also gave a TGI [40] greater than 100 µM, a TGI [41] greater than 100 µM and a TGI [42] greater than 100 µM. It also gave a TGI [43] greater than 100 µM, a TGI [59] greater than 100 µM and a TGI [44] greater than 100 µM. For the same compound, the TGI [45] was greater than 100 µM, the TGI [46] was greater than 100 µM and the TGI [47] was greater than 100 µM. It also gave a TGI [48] greater than 100 µM, a TGI [49] greater than 100 µM and a TGI [50] greater than 100 µM. For the same compound, the TGI [52] was greater than 100 µM, the TGI [53] was greater than 100 µM and the TGI [54] was greater than 100 µM. For the same compound, the TGI [55] was greater than 100 µM.
